# Molecular target: full-length human HPK1 (MAP4K1) (Homo sapiens (Human), UniProt Q92918)
# Test: HPK1 Kinase Assay (Biochemical Assay), ADP-Glo
# Settings: GST-HPK1 3.2 nM, 10 μM ATP, MBP substrate, read-out: HPK1 enzymatic IC50
# Excerpt: HPK1 Kinase Assay (Biochemical Assay).
# A recombinant fusion protein consisting of full-length human HPK1 (MAP4K1) with an N-terminal Glutatione S-transferase (GST) tag was produced in insect cells Sf21 using the baculovirus expression system. GST-HPK1 protein was purified from cell lysates by glutathione Sepharose affinity chromatography. The assay is run in three continuous steps: 1) the HPK1 enzymatic kinase reaction, 2) an ATP depletion, and 3) the ADP detection, the steps 2 and 3 are performed with ADP-Glo™ Kinase Assay kit from Promega (V9101). Test compounds were prepared by 10-point serial dilution in dimethyl sulfoxide (DMSO) and 100 nL of each dilution was spotted onto a 384-well Optiplate (Perkin Elmer and Cat #6007299) by Labcyte Echo. 5 μL kinase reaction buffer (0.02% Brij-35, 2 mM DTT, 50 mM HEPES pH 7.5, MgCl2 10 mM, BSA 0.01% and O-glycerophosphate 12.5 mM) containing HPK1 (3.2 nM) enzyme was transferred to each well and incubated for 15 minutes at room temperature at 60% humidity. The enzymatic reaction was started by adding 5 μl of Start-Mix (10 μM ATP and 3.235 μM MBP). After 120 minutes, the reaction was stopped by adding 5 μL of ADP-Glo reagent (Promega, V9101) and incubating for 40 min. in the dark at 23° C. To determine the level of ADP, 10 μl ADP-Glo Detection solution was added and incubated for 1 hour at 23° C. in the dark. The plate was transferred to a Perkin Elmer EnVision (2104 Multilabel Reader) for luminescence detection and percent inhibition activity and IC50 value were determined using Genedata Screener.
# Chain of full-length human HPK1 (MAP4K1) (Q92918 whole entry): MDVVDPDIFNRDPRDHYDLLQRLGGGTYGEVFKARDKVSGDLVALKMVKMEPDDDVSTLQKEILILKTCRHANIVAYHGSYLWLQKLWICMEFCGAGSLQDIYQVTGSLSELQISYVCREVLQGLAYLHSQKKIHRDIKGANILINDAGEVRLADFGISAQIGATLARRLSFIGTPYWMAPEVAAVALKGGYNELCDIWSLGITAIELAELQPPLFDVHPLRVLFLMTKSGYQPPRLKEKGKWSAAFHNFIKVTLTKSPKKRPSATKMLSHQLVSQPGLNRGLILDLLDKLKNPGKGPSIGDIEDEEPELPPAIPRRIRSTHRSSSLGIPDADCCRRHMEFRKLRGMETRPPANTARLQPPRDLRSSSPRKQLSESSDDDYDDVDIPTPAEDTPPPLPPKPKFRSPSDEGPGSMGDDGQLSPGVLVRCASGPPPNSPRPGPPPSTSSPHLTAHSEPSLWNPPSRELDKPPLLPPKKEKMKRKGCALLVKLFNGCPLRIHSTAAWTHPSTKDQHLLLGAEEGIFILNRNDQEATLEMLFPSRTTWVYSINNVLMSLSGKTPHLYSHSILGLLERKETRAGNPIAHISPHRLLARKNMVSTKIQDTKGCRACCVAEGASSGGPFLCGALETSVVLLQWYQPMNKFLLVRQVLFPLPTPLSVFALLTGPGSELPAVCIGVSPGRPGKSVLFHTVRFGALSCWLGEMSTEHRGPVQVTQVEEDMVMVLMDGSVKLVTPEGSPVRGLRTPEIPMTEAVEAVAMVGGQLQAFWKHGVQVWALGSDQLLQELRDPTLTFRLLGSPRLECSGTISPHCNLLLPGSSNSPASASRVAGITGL
row,Compound,IC50
1,"Cc1c(N2CCc3cnc(Nc4ccc(NC(=O)C5(C)COC5)nc4)nc3C2)cnc2c1NCCO2 [Example 8, 3-methyl-N-{5-[(7-{8-methyl-1H,2H,3H-pyrido[2,3-b][1,4]oxazin-7-yl}-5H,6H,7H,8H-pyrido[3,4-d]pyrimidin-2-yl)amino]pyridin-2-yl}oxetane-3-carboxamide]",100 to 1000 nM
2,"Cc1c(N2CCc3cnc(Nc4ccc(C(=O)N5CC[C@@H](N(C)C)C5)cc4)cc3C2)cnc2c1NCCO2 [Example 11, N-{4-[(3R)-3-(dimethylamino)pyrrolidine-1-carbonyl]phenyl}-6-{8-methyl-1H,2H,3H-pyrido[2,3-b][1,4]oxazin-7-yl}-5,6,7,8-tetrahydro-2,6-naphthyridin-3-amine]",< 100 nM
3,"Cc1c(N2CCc3cnc(Nc4cc5n(n4)CC(=O)N(C)CC5)nc3C2)cnc2c1NCCO2 [Example 22, 6-methyl-2-[(7-{8-methyl-1H,2H,3H-pyrido[2,3-b][1,4]oxazin-7-yl}-5H,6H,7H,8H-pyrido[3,4-d]pyrimidin-2-yl)amino]-4H,5H,6H,7H,8H-pyrazolo[1,5-d][1,4]diazepin-7-one]",100 to 1000 nM
4,"Cc1cnsc1N1CCc2cnc(Nc3cc4n(n3)CC(=O)N(C(C)C)CC4)nc2C1 [Example 86, 2-{[7-(4-methyl-1,2-thiazol-5-yl)-5H,6H,7H,8H-pyrido[3,4-d]pyrimidin-2-yl]amino}-6-(propan-2-yl)-4H,5H,6H,7H,8H-pyrazolo[1,5-d][1,4]diazepin-7-one; trifluoroacetic acid]",> 1000 nM
5,"Cc1c(N2CCc3cnc(Nc4cnc5c(c4)CN(C)CC5)nc3C2)cnc2c1NC(=O)CO2 [Example 88, 8-methyl-7-(2-((6-methyl-5,6,7,8-tetrahydro-1,6-naphthyridin-3-yl)amino)-5,8-dihydropyrido[3,4-d]pyrimidin-7(6H)-yl)-1H-pyrido[2,3-b][1,4]oxazin-2(3H)-one]",< 100 nM
6,"Cc1c(N2CCc3cnc(Nc4cnc5c(c4)CN(C)CC5)nc3C2)cnc2c1OCCO2 [Example 95, 7-(8-methyl-2,3-dihydro-[1,4]dioxino[2,3-b]pyridin-7-yl)-N-(6-methyl-5,6,7,8-tetrahydro-1,6-naphthyridin-3-yl)-5,6,7,8-tetrahydropyrido[3,4-d]pyrimidin-2-amine]",< 100 nM
7,"CN1CCc2ncc(Nc3ncc4c(n3)CN(c3cnn(C)c3)CC4)cc2C1 [Example 114, 7-(1-methyl-1H-pyrazol-4-yl)-N-(6-methyl-5,6,7,8-tetrahydro-1,6-naphthyridin-3-yl)-5,6,7,8-tetrahydropyrido[3,4-d]pyrimidin-2-amine]",< 100 nM
8,"COc1cccc(F)c1N1CCc2cnc(Nc3ccc(C4CCN(C)CC4)cc3)nc2C1 [Example 117, 7-(2-fluoro-6-methoxyphenyl)-N-(4-(1-methylpiperidin-4-yl)phenyl)-5,6,7,8-tetrahydropyrido[3,4-d]pyrimidin-2-amine]",< 100 nM
9,"Cc1c(N2CCc3cnc(Nc4ccc(CN5CC(C)(O)C5)cc4)nc3C2)cnc2c1NCCO2 [Example 123, 3-methyl-1-(4-((7-(8-methyl-2,3-dihydro-1H-pyrido[2,3-b][1,4]oxazin-7-yl)-5,6,7,8-tetrahydropyrido[3,4-d]pyrimidin-2-yl)amino)benzyl)azetidin-3-ol]",100 to 1000 nM
10,"Cc1c(N2CCc3cnc(Nc4ccc(CCO)cc4)nc3C2)cnc2c1NCCO2 [Example 134, 2-{4-[(7-{8-methyl-1H,2H,3H-pyrido[2,3-b][1,4]oxazin-7-yl}-5H,6H,7H,8H-pyrido[3,4-d]pyrimidin-2-yl)amino]phenyl}ethan-1-ol]",< 100 nM
11,"Cc1cc(Nc2ncc3c(n2)CN(c2cnc4c(c2C)NCCO4)CC3)ccc1CC#N [Example 149, 2-{2-methyl-4-[(7-{8-methyl-1H,2H,3H-pyrido[2,3-b][1,4]oxazin-7-yl}-5H,6H,7H,8H-pyrido[3,4-d]pyrimidin-2-yl)amino]phenyl}acetonitrile]",< 100 nM
12,"Clc1c(N2CCc3cnc(Nc4ccc(-c5nnc(C6CC6)o5)cc4)nc3C2)cnc2c1NCCO2 [Example 159, 7-{8-chloro-1H,2H,3H-pyrido[2,3-b][1,4]oxazin-7-yl}-N-[4-(5-cyclopropyl-1,3,4-oxadiazol-2-yl)phenyl]-5H,6H,7H,8H-pyrido[3,4-d]pyrimidin-2-amine]",< 100 nM

# Continued, values first:
row,IC50,Compound
1,< 100 nM,"Cc1cc(Nc2ncc3c(n2)CN(c2cnc4c(c2C)NCCO4)CC3)cnc1N(C)CCN1CCOCC1 [Example 43, N2,3-dimethyl-N5-(7-{8-methyl-1H,2H,3H-pyrido[2,3-b][1,4]oxazin-7-yl}-5H,6H,7H,8H-pyrido[3,4-d]pyrimidin-2-yl)-N2-[2-(morpholin-4-yl)ethyl]pyridine-2,5-diamine]"
2,< 100 nM,"Cc1c(N2CCc3cnc(Nc4ccnc(N5CCOCC5)c4)cc3C2)cnc2c1NCCO2 [Example 54, 6-(8-methyl-2,3-dihydro-1H-pyrido[2,3-b][1,4]oxazin-7-yl)-N-(2-morpholinopyridin-4-yl)-5,6,7,8-tetrahydro-2,6-naphthyridin-3-amine]"
3,< 100 nM,"Cc1c(N2CCc3cnc(Nc4ccc5c(c4)CCN(C)CC5)nc3C2)cnc2c1NCCO2 [Example 62, 3-methyl-N-(7-{8-methyl-1H,2H,3H-pyrido[2,3-b][1,4]oxazin-7-yl}-5H,6H,7H,8H-pyrido[3,4-d]pyrimidin-2-yl)-2,3,4,5-tetrahydro-1H-3-benzazepin-7-amine]"
4,< 100 nM,"Cc1c(N2CCc3cnc(Nc4ccc(CN5CCN(C)CC5)cc4)nc3C2)cnc2c1NCCO2 [Example 64, 7-{8-methyl-1H,2H,3H-pyrido[2,3-b][1,4]oxazin-7-yl}-N-{4-[(4-methylpiperazin-1-yl)methyl]phenyl}-5H,6H,7H,8H-pyrido[3,4-d]pyrimidin-2-amine]"
5,> 1000 nM,"Cc1c(N2CCc3cnc(NC4CCN(Cc5cnn(C)c5)CC4)nc3C2)cnc2c1NCCO2 [Example 70, N-(7-{8-methyl-1H,2H,3H-pyrido[2,3-b][1,4]oxazin-7-yl}-5H,6H,7H,8H-pyrido[3,4-d]pyrimidin-2-yl)-1-[(1-methyl-1H-pyrazol-4-yl)methyl]piperidin-4-amine]"
6,< 100 nM,"Cc1c(N2CCc3cnc(Nc4ccnc(S(C)(=O)=O)c4)nc3C2)cnc2c1NCCO2 [Example 75, 7-(8-methyl-2,3-dihydro-1H-pyrido[2,3-b][1,4]oxazin-7-yl)-N-(2-(methylsulfonyl)pyridin-4-yl)-5,6,7,8-tetrahydropyrido[3,4-d]pyrimidin-2-amine]"
7,100 to 1000 nM,"COCc1cncc(N2CCc3cnc(Nc4ccc(C5CCOCC5)c(CO)c4)nc3C2)c1 [Example 78, (5-((7-(5-(methoxymethyl)pyridin-3-yl)-5,6,7,8-tetrahydropyrido[3,4-d]pyrimidin-2-yl)amino)-2-(tetrahydro-2H-pyran-4-yl)phenyl)methanol]"
8,< 100 nM,"Cc1c(N2CCc3cnc(Nc4cnc5c(c4)CN(C)CC5)nc3C2)cnc2c1N(C)CCO2 [Example 101, 7-(1,8-dimethyl-2,3-dihydro-1H-pyrido[2,3-b][1,4]oxazin-7-yl)-N-(6-methyl-5,6,7,8-tetrahydro-1,6-naphthyridin-3-yl)-5,6,7,8-tetrahydropyrido[3,4-d]pyrimidin-2-amine]"
9,100 to 1000 nM,"CN1CCc2ncc(Nc3ncc4c(n3)CN(c3ccccn3)CC4)cc2C1 [Example 129, 6-methyl-N-[7-(pyridin-2-yl)-5H,6H,7H,8H-pyrido[3,4-d]pyrimidin-2-yl]-5,6,7,8-tetrahydro-1,6-naphthyridin-3-amine]"
10,> 1000 nM,"CS(=O)(=O)Cc1ccc(Nc2ncc3c(n2)CN(c2cnc4cnccn24)CC3)cc1 [Example 136, 7-{imidazo[1,2-a]pyrazin-3-yl}-N-[4-(methanesulfonylmethyl)phenyl]-5H,6H,7H,8H-pyrido[3,4-d]pyrimidin-2-amine]"
11,< 100 nM,"COCCOCCS(=O)(=O)Cc1ccc(Nc2ncc3c(n2)CN(c2cnc4c(c2C)NCCO4)CC3)cc1 [Example 137, N-(4-{[2-(2-methoxyethoxy)ethanesulfonyl]methyl}phenyl)-7-{8-methyl-1H,2H,3H-pyrido[2,3-b][1,4]oxazin-7-yl}-5H,6H,7H,8H-pyrido[3,4-d]pyrimidin-2-amine]"
12,< 100 nM,"Cc1c(N2CCc3cnc(Nc4cc5n(n4)CC(=O)N(C4CC4)CC5)cc3C2)cnc2c1NCCO2 [Example 141, 6-cyclopropyl-2-[(6-{8-methyl-1H,2H,3H-pyrido[2,3-b][1,4]oxazin-7-yl}-5,6,7,8-tetrahydro-2,6-naphthyridin-3-yl)amino]-4H,5H,6H,7H,8H-pyrazolo[1,5-d][1,4]diazepin-7-one]"
13,> 1000 nM,"Cn1ccc2c(N3CCc4cnc(Nc5ccc(CS(C)(=O)=O)cc5)nc4C3)ccnc21 [Example 146, N-[4-(methanesulfonylmethyl)phenyl]-7-{1-methyl-1H-pyrrolo[2,3-b]pyridin-4-yl}-5H,6H,7H,8H-pyrido[3,4-d]pyrimidin-2-amine]"
14,< 100 nM,"Cc1c(N2CCc3cnc(Nc4ccc(CS(C)(=O)=O)cc4)nc3C2)cnc2oc(=O)[nH]c12 [Example 160, 6-(2-{[4-(methanesulfonylmethyl)phenyl]amino}-5H,6H,7H,8H-pyrido[3,4-d]pyrimidin-7-yl)-7-methyl-1H,2H-[1,3]oxazolo[5,4-b]pyridin-2-one]"

# — patent US20240025922A1, “TETRAHYDROPYRIDO[3,4-d]PYRIMIDINES AS HPK1 INHIBITORS” (Merck Patent GmbH, priority 2022, published 2024)
